The assay concerns the target PrP^Sc (Mus musculus, UniProt P04925).

Chain of PrP^Sc (P04925 23-230 limits assumed): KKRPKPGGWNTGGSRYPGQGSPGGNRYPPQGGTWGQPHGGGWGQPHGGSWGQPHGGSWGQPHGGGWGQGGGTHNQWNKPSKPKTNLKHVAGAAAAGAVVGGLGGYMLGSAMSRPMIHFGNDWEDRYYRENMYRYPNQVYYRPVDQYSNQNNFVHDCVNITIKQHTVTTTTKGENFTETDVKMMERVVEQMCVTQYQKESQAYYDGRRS

For the substance (GGG)KKRPKPGG [SEQ ID NO:68], the “binding to PrP^Sc, Western blotting (FIG. 4, lane 5)” value is listed as “strong binding”.

Values taken from patent US20090191571A1 (priority 2005, published 2009).
